Series [1] concerns Rattus norvegicus. As to the kind of experiment: Anti-inflammatory activity in Rattus norvegicus Wistar (rat) assessed as inhibition of carrageenan-induced paw edema at 70 mg/kg, po administered 1 hr prior to carrageenan challenge measured after 4 hr by plethysmometric analysis relative to control. It is filed as functional. (The carrageenan paw model is a standard test of acute inflammation.)

Series [2] deals with Rattus norvegicus. In words: Anti-inflammatory activity in Rattus norvegicus Wistar (rat) assessed as inhibition of carrageenan-induced paw edema at 70 mg/kg, po administered 1 hr prior to carrageenan challenge measured after 3 hr by plethysmometric analysis relative to control. It counts as functional.
Series [3] relates to Rattus norvegicus. In words: Antioxidant activity in Rattus norvegicus Wistar (rat) assessed as malondialdehyde content in gastric mucosa at 210 mg/kg, po after 17 hr by UV spectrophotometric analysis (reference value: 3.23 +/- 0.05 nmol). It counts as functional.
The subject of series [4] is Rattus norvegicus. As to the kind of experiment: Ulcerogenic activity in Rattus norvegicus Wistar (rat) stomach assessed as severity index at 210 mg/kg, po after 17 hr relative to control. It is filed as toxicity, organism-based. Further details: dose 210 mg/kg, route oral. The conditions noted are these: in vivo.
Series [5] deals with Rattus norvegicus. In words: Anti-inflammatory activity in Rattus norvegicus Wistar (rat) assessed as inhibition of carrageenan-induced paw edema at 35 mg/kg, po administered 1 hr prior to carrageenan challenge measured after 3 hr by plethysmometric analysis relative to control. It counts as functional.
In series [6] the test system is Rattus norvegicus. In words: Anti-inflammatory activity in Rattus norvegicus Wistar (rat) assessed as inhibition of carrageenan-induced paw edema at 35 mg/kg, po administered 1 hr prior to carrageenan challenge measured after 4 hr by plethysmometric analysis relative to control. It counts as functional.
The test system of series [7] is Rattus norvegicus. As to the kind of experiment: Antioxidant activity in Rattus norvegicus Wistar (rat) assessed as malondialdehyde content in gastric mucosa at 105 mg/kg, po after 17 hr by UV spectrophotometric analysis (reference value: 3.23 +/- 0.05 nmol). It counts as functional.
Series [8] concerns Rattus norvegicus. In words: Ulcerogenic activity in Rattus norvegicus Wistar (rat) stomach assessed as severity index at 105 mg/kg, po after 17 hr relative to control. It is filed as toxicity, organism-based. Further details: dose 105 mg/kg, route oral. As to conditions: in vivo.

Take `COc1ccc(C2=NOC(c3c[nH]c4ccccc34)C2CN2CCOCC2)cc1` (stereo not given): the inhibition in vivo at 70 mg/kg with Rattus norvegicus [1] was found to be 55.5%; with Rattus norvegicus [2], 44.1%. In addition, the Activity in the series on Rattus norvegicus [3] is 4.16 nmol. In the series on Rattus norvegicus [4], the UI is on record as 0.25.
Turning to `Cc1ccc(C2=NOC(c3c[nH]c4ccccc34)C2CN2CCOCC2)cc1` (stereo not given), the results for the inhibition in vivo at 70 mg/kg in the series on Rattus norvegicus [1] and in the series with Rattus norvegicus [2] were 48.5% and 38.2%, respectively.
On to `Clc1ccc(C2=NOC(c3c[nH]c4ccccc34)C2CN2CCOCC2)cc1` (stereo not given), for which the results for the inhibition in vivo at 70 mg/kg in the series on Rattus norvegicus [1] and in the series on Rattus norvegicus [2] were 50.5% and 44.1%, respectively. Moreover, in the series on Rattus norvegicus [3], the Activity came out at 4.39 nmol. Further, the UI in the series with Rattus norvegicus [4] is given as 0.75.
Take `c1ccc(C2=NOC(c3c[nH]c4ccccc34)C2CN2CCOCC2)cc1` (stereo not given): the inhibition in vivo at 70 mg/kg in the series with Rattus norvegicus [1] came out at 45.5%; in the series with Rattus norvegicus [2], 35.3%.
Take `COc1ccc(C2=NOC(c3c[nH]c4ccccc34)C2CN2CCCCC2)cc1` (stereo not given): the inhibition in vivo at 70 mg/kg came to 50.5% in the series with Rattus norvegicus [1] and 45.1% in the series with Rattus norvegicus [2]. The Activity in the series on Rattus norvegicus [3] was 4.51 nmol. In the series with Rattus norvegicus [4], the UI is on record as 0.75.
`Cc1ccc(C2=NOC(c3c[nH]c4ccccc34)C2CN2CCCCC2)cc1` (stereo not given): the inhibition in vivo at 70 mg/kg with Rattus norvegicus [1] turned out to be 51.5%; with Rattus norvegicus [2], 41.2%. Moreover, the Activity in the series on Rattus norvegicus [3] stood at 4.28 nmol. For the same compound, the UI in the series with Rattus norvegicus [4] was found to be 0.5.
Consider `Clc1ccc(C2=NOC(c3c[nH]c4ccccc34)C2CN2CCCCC2)cc1` (stereo not given), for which the inhibition in vivo at 70 mg/kg in the series with Rattus norvegicus [1] is 53.5%; in the series on Rattus norvegicus [2], 45.1%. The Activity with Rattus norvegicus [3] amounted to 4.38 nmol. Also, the UI in the series with Rattus norvegicus [4] was 0.583.
Turning to `c1ccc(C2=NOC(c3c[nH]c4ccccc34)C2CN2CCCCC2)cc1` (stereo not given), the inhibition in vivo at 70 mg/kg with Rattus norvegicus [1] was determined as 48.5%; with Rattus norvegicus [2] it was 34.3%.
With `COc1ccc2c(c1)c(CC(=O)O)c(C)n2C(=O)c1ccc(Cl)cc1` [INDOMETHACIN], the inhibition in vivo at 35 mg/kg stood at 65.2% with Rattus norvegicus [5] and 76.5% in the series with Rattus norvegicus [6]. Also, in the series with Rattus norvegicus [7], the Activity turned out to be 9.29 nmol. Moreover, the UI in the series with Rattus norvegicus [8] was found to be 2.33.

Usually inhibition in vivo stands for the change of the read-out against control, counted positive when it falls.

Source of the values: ChEMBL document CHEMBL3046271, “Design and synthesis of 3-[3-(substituted phenyl)-4-piperidin-1-ylmethyl/-4-morpholin-4-ylmethyl-4,5-dihydro-isoxazol-5-yl]-1H-indoles as potent anti-inflammatory agents” (Med Chem Res, 2010).
